Structures can show the parent of a compound that is named as a salt. Where two headings read alike, the source gives them in different places.
Tests used:
heart AChE = test: Inhibition kinetics of heart AChE after oral administration (Table 2); format: in vivo; settings: p.o. at 1/7 LD50: CHF 2060 10, CHF 2819 1.3, CHF 2822 2.5, CHF 2957 9 mg/kg; 1, 4, 16 h; rat
Description: (§1) In a preferred embodiment of the present invention, compounds CHF 2819, CHF 2957, CHF 2822 were evaluated for their enzymatic inhibition potency and selectivity of action through a series of parameters in comparison with n-heptylaminocarbonylgeneseroline hydrochloride (CHF2060).
(§2) Male SD rats weighing 150-200 g were split into groups of 8 animals each, depending on the treatment with the different substances, which were orally administered in distilled water, at a volume of 2 ml/kg. After 2 hours from the administration, the animals were sacrificed as to take their brains. Brain tissue was homogenized in a […] solution in 0.1 M phosphate buffer at pH 8. After 15 minutes centrifugation, at 4° C., the supernatant was separated and AChE was determined on it with the method described by ElIman G. L. et al. (Biochem Pharmacol. 7, 88-95, 1961). For each treatment enzyme inhibition percent was determined against controls (animals treated with distilled water only).
(§3) Another series of experiments was performed in order to determine inhibition kinetics of brain and heart AChE after 1, 4 and 16 hours from administration of each tested substance. Enzyme was assayed on tissue homogenates similarly to what above described. […] Area Under Curve (AUC) was calculated by means of the enzymatic inhibition curve, for brain and heart tissue, related to the three test times.

erythrocyte AChE = molecular target: T1, erythrocyte AChE (Homo sapiens, UniProt P22303); test: In vitro inhibition of erythrocyte AChE (Table 3); format: biochemical; settings: for IC50: erythrocyte AChE, n = 4-8, read-out: AChE IC50 (μM) ± s.e.; for S.I.: selectivity index (IC50 BuChE/IC50 AChE)
T1 construct: from tissue
T1 sequence (P22303 other isoform, or with tags, fused parts or gaps): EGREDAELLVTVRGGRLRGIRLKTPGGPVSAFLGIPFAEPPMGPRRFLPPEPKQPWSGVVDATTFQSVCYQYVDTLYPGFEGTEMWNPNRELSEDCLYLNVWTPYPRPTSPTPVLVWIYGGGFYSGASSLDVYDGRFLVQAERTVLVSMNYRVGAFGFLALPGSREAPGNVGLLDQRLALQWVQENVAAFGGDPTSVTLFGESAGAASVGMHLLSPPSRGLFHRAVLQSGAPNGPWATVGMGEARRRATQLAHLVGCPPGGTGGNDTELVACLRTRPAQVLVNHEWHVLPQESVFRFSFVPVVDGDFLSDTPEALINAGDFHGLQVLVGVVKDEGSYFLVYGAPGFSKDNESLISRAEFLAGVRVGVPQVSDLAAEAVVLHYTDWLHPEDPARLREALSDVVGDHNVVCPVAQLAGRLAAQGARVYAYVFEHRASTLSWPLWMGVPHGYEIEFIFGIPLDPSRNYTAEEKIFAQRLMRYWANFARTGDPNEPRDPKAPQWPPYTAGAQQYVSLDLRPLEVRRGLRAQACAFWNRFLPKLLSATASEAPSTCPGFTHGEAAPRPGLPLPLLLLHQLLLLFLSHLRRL

brain AChE [1] = molecular target: T2, brain AChE (Rattus norvegicus, UniProt P37136); test: Rat brain AChE inhibition ex vivo after oral administration (Table 1); format: in vivo; settings: for Potency relative to CHF 2060: inhibition of AChE after oral administration in rat; for ED50: read-out: ED50 (dose of compound to inhibit 50% of the enzyme), p.o., brain AChE, C.L. 95% given; for inhibition at 3 mg/kg: 3 mg/kg p.o.
T2 construct: from tissue; host or cells: rat brain (male SD rats), homogenate in Triton/phosphate buffer, supernatant
T2 sequence (P37136 32-614): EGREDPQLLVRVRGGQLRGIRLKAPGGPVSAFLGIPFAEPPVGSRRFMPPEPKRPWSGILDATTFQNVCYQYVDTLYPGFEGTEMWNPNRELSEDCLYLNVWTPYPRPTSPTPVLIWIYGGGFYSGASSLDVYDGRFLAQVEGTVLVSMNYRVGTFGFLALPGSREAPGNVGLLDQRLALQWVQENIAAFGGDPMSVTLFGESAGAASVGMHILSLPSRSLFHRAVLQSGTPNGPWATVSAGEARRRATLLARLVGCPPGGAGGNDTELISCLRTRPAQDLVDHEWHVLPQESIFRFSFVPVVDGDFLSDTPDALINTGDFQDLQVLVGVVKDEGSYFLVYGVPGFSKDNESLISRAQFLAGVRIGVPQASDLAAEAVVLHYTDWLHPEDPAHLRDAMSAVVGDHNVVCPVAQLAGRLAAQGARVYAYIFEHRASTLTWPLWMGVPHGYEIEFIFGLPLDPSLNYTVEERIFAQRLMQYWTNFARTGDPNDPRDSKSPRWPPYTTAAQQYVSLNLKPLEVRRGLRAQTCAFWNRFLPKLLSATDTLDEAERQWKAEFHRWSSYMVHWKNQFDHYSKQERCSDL
Description: as §1, §2

brain AChE [2] = molecular target: T2, brain AChE; test: Inhibition kinetics of brain AChE after oral administration (Table 2); format: in vivo; settings: for selectivity index*: Brain AUC/Heart AUC; for selectivity index* / brain AUC (% inhib · xh) / inhibition at 9 mg/kg: p.o. at 1/7 LD50: CHF 2060 10, CHF 2819 1.3, CHF 2822 2.5, CHF 2957 9 mg/kg, rat; for brain AUC (% inhib · xh) / inhibition at 9 mg/kg: 1, 4, 16 h; for inhibition at 9 mg/kg: po, read-out: brain AChE maximum % inhibition
Description: as §1, §2, §3

human plasma BuChE = molecular target: T3, human plasma BuChE (Homo sapiens, UniProt P06276); test: In vitro inhibition of human plasma BuChE (Table 3); format: biochemical; settings: for IC50: human plasma BuChE, n = 4-8, read-out: BuChE IC50 (μM) ± s.e.
T3 construct: human plasma BuChE; from tissue; host or cells: human plasma
T3 sequence (P06276 29-602): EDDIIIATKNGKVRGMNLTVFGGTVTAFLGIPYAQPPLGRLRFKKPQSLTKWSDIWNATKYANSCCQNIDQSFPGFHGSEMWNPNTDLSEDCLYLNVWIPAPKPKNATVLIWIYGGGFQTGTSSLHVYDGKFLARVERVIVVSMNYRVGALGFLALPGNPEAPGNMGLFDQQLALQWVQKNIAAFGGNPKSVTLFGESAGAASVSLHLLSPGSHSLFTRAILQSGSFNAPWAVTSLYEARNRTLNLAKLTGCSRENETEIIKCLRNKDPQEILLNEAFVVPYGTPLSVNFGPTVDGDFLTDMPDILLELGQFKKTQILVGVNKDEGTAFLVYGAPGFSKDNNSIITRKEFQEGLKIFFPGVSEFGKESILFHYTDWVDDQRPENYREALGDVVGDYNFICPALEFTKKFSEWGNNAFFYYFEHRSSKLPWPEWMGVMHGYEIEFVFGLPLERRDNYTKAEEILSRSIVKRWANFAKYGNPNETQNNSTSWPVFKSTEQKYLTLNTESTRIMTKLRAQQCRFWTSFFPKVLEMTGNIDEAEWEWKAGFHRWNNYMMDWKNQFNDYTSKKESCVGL

[3] = system: brain acetylcholinesterase (AChE); settings: European patent 0599890; cited from earlier work

SMILES	Heart AChE maximum % inhibition (heart AChE) [%]	Heart AUC (% inhib · xh) (heart AChE)	selectivity AChE versus BuChE (in words) (erythrocyte AChE; in vitro)	IC50 (erythrocyte AChE; in vitro) [µM]	S.I. (erythrocyte AChE)	Potency relative to CHF 2060 (brain AChE [1]) [times]	ED50 (brain AChE [1]; po, rat, 2 h) [mg/kg]	Potency order (*) (brain AChE [1]; rat p.o., CHF 2060 = 1)	selectivity index* (brain AChE [2])	brain AUC (% inhib · xh) (brain AChE [2])	IC50 (human plasma BuChE) [µM]	inhibition at 3 mg/kg (brain AChE [1]; rat, po, 2 h, SD rats) [%]	inhibition at 9 mg/kg (brain AChE [2]) [%]	also measured
Cc1ccccc1NC(=O)Oc1ccc2c(c1)[C@]1(C)CCN(C)OC1N2C (stereo partly shown) [CHF 2822, n-(2-methylphenyl)aminocarbonylgeneseroline hydrochloride]	9	96	slightly less selective	2.01 ± 0.08	0.09	7	1.6	7	3.9	379	0.18 ± 0.01			inhibition at 0.8 mg/kg (brain AChE [1]; rat, po, 0.8 mg/kg p.o., 2 h, SD rats): 25%; inhibition at 2.5 mg/kg (brain AChE [1]; rat, po, 2.5 mg/kg p.o., 2 h, SD rats): 46%; inhibition at 7.5 mg/kg (brain AChE [1]; rat, po, 7.5 mg/kg p.o., 2 h, SD rats): 68%
CCCCCCCNC(=O)Oc1ccc2c(c1)[C@]1(C)CCN(C)OC1N2C (stereo partly shown) [CHF 2060, n-heptylaminocarbonylgeneseroline hydrochloride, reference compound]	41	450		0.85 ± 0.08	0.005		13.2		0.6	252	0.005 ± 0.0007	8	20	brain acetylcholinesterase inhibition, duration (in words) [3]: inhibitor of brain acetylcholinesterase characterised by a long action; Potency order (*) (brain AChE [1]): 1; inhibition at 10 mg/kg (brain AChE [1]; rat, po, 10 mg/kg p.o., 2 h, SD rats): 29%; inhibition at 30 mg/kg (brain AChE [1]; rat, po, 30 mg/kg p.o., 2 h, SD rats): 60%; BuChE inhibition relative to AChE (in words) (human plasma BuChE): definitely more potent in inhibiting BuChE, rather than AChE
CNC(=O)Oc1ccc2c(c1)[C@]1(C)CCN(C)[C@@H]1N2C [Physostigmine, reference compound]					0.27									
CCN(C)C(=O)Oc1cccc([C@H](C)N(C)C)c1 [SDZ-ENA 713, reference compound]					0.007									AChE affinity / activity (in words) (erythrocyte AChE; in vitro, evaluated as IC50): less active than other products
Cc1cccc(NC(=O)Oc2ccc3c(c2)[C@]2(C)CCN(C)OC2N3C)c1 (stereo partly shown) [CHF 2957, n-(3-methylphenyl)aminocarbonylgeneseroline hydrochloride]	13	125	good selectivity	4.2 ± 0.29	32	3	4.1	3	4.7	585	134 ± 9.7	21	62	inhibition at 6 mg/kg (brain AChE [1]; rat, po, 6 mg/kg p.o., 2 h, SD rats): 56%; inhibition at 9 mg/kg (brain AChE [1]; rat, po, 9 mg/kg p.o., 2 h, SD rats): 67%
CCc1ccccc1NC(=O)Oc1ccc2c(c1)[C@]1(C)CCN(C)OC1N2C (stereo partly shown) [CHF 2819, n-(2-ethylphenyl)aminocarbonylgeneseroline hydrochloride]	4	36	favourable "in vitro" selectivity on AChE with respect to BuChE	0.48 ± 0.06	115	8	1.5	8	9.7	348	55.2 ± 6.43			selectivity on AChE (erythrocyte AChE; in vitro, AChE versus BuChE, from selectivity index): 115 times; inhibition at 0.4 mg/kg (brain AChE [1]; rat, po, 0.4 mg/kg p.o., 2 h, SD rats): 9%; inhibition at 1.3 mg/kg (brain AChE [1]; rat, po, 1.3 mg/kg p.o., 2 h, SD rats): 34%; inhibition at 3.7 mg/kg (brain AChE [1]; rat, po, 3.7 mg/kg p.o., 2 h, SD rats): 55%; in vivo selectivity in inhibiting brain AChE (in words) (brain AChE [2]; brain versus heart/peripheral): "in vivo" selectivity in inhibiting brain AChE; duration of action (in words) (brain AChE [2]; in vivo): good duration of action
